Results from patent publication US20240390369A1, “METHODS FOR DETERMINING RESPONSIVENESS TO TYK2 INHIBITORS” (Bristol-Myers Squibb Company, priority 2021, published 2024).
Where “and” joins values, the source holds several entries; their conditions need not be identical. Equal entries are not always repeated.

Tested on: patients with psoriatic arthritis
Assay: Phase 2 trial in psoriatic arthritis: PASI75 response at week 16
Type: in vivo, human
Details: for Interaction Term for PASI75 response (ratio of odds ratios): week 16; for PASI75 response rate over time / Number of subjects, PASI75 Non-responder at week 16 / Number of subjects, PASI75 Responder at week 16 / Number of subjects, PASI75 Non-responder / Number of subjects, PASI75 Responder / Number of subjects: 6 mg QD; for PASI75 response rate over time: 12 mg QD, placebo, sixteen-week treatment period
Protocol: In a double-blind Phase 2 trial, 203 patients with psoriatic arthritis were randomized into three groups: deucravacitinib 6 mg once daily (N=70), deucravacitinib 12 mg once daily (N=67), or placebo (N=66). All subjects had active psoriatic arthritis according to the Classification Criteria for Psoriatic Arthritis (CASPAR); for active disease, these criteria required ≥3 tender joint count, ≥3 swollen joint count, and a C-reactive protein level above 3 mg/L. Other inclusion criteria included the following: presence of at least one plaque psoriasis lesion, and prior treatment failure with a non-biologic disease modifying anti-rheumatic drug, a non-steroidal anti-inflammatory drug, or a steroid. With respect to treatment history, approximately 70% of subjects had not received prior treatment with a biologic and were biologic naïve, while up to 30% of subjects had failed or had been intolerant to one TNF-inhibitor (TNF=Tumor necrosis factor, also known as TNFα). Randomization was stratified by prior TNF-inhibitor use (experienced/naïve) and body weight (<90 kg and ≥90 kg).
Clinical measures included the Psoriasis […] (PASI) score for skin psoriasis, American College of Rheumatology 20 (ACR20) response, Psoriatic Arthritis Disease Activity Score (PASDAS), Health Assessment Questionnaire-Disability Index (HAQ-DI), and Disease Activity Score 28 CRP (DAS28). To evaluate the predictive value of different protein measurements for the clinical response to deucravacitinib, baseline protein concentrations for responders and non-responders, as defined by ACR20 or PASI75 at week 16, were compared for each arm (placebo, 6 mg deucravacitinib once-daily, and 12 mg deucravacitinib once-daily).
In addition, a logistic regression model was fit, to determine whether baseline disease score (dichotomized by the median baseline score, into baseline score high and baseline score low groups) was associated with response status. The model generated an odds ratio for each dosed arm versus placebo, in baseline score high and baseline score low groups.
Boxplots for baseline protein level by response were generated with a horizontal line indicating the median protein level at baseline. For each treatment arm, a two-sample t-test was performed to test whether mean baseline serum protein level was different in responders versus non-responders. A Wilcoxon rank sum test (Mann-Whitney U test) was also performed to evaluate the difference in median serum protein level between responders and non-responders. Further, barplots of ACR20 and PASI75 response rate at week 16 for each treatment arm were generated for all subjects (protein level high and protein level low subjects, dichotomized according to median baseline level). Line plots of ACR20 and PASI75 response rate over time for each treatment arm were generated for protein level high and protein level low groups. Logistic regression models were also fit to evaluate associations between baseline protein levels and clinical outcome.
For certain analyses described herein, patients were dichotomized by median values (e.g., of the proteins listed above or other measures) into “high” and “low” groups, such that the high group had values above the median and the low group had values less than or equal to the median.
In addition, logistic regression models were fit for response measures ACR20 and PASI75, to generate the odds ratio of each of the deucravacitinib treatment arms versus placebo, in BD2-high and BD2-low groups. The following logistic regression models were used: • For ACR20 response status: ACR20 (Y/N)=treatment arm+BD2 group+treatment arm*BD2 group+TNF-inhibitor use+baseline weight (continuous). • For PASI75 response status: PASI75 (Y/N)=treatment arm+BD2 group+treatment arm*BD2 group+TNF-inhibitor use+baseline weight (continuous). […]

[1] = Above median baseline CRP level
[2] = Below median baseline CRP level

[2H]C([2H])([2H])NC(=O)c1nnc(NC(=O)C2CC2)cc1Nc1cccc(-c2ncn(C)n2)c1OC [deucravacitinib, 6-(cyclopropanecarboxamido)-4-((2-methoxy-3-(1-methyl-1H-1,2,4-triazol-3-yl)phenyl)amino)-N-(methyl-d3)pyridazine-3-carboxamide]
Interaction Term for PASI75 response (ratio of odds ratios) (6 mg QD vs placebo: BD2 high versus BD2 low): 11.628 | Interaction Term: treatment arm*CRP group, PASI75 (6 mg QD vs placebo: CRP high versus CRP low): 1.67 | Interaction Term: treatment arm*CRP group, PASI75 (6 mg QD vs placebo: CRP-high versus CRP-low, adjusted for baseline PASI score): 1.67 | Interaction Term: treatment arm*IL-17A group, PASI75 (6 mg QD vs placebo: IL-17A high versus IL-17A low, adjusted for baseline PASI score): 22.889 | Interaction Term for PASI75 response (ratio of odds ratios) (6 mg QD vs placebo: IL-17A high versus IL-17A low): 22.851 | Interaction Term for PASI75 response (ratio of odds ratios) (6 mg QD vs placebo: baseline PASI high versus PASI low): 5.51 and 5.514 | PASI75 response rate over time (BD2-high and BD2-low groups (FIG. 9)): dose-dependent PASI75 response rate over time was observed in the BD2-high group but not in the BD2-low group | PASI75 response rate over time (CRP-high and CRP-low groups (FIG. 40)): higher response rates than the placebo arm | PASI75 response rate over time (IL-17A-high and IL-17A-low groups (FIG. 23)): dose-dependent PASI75 response over time was observed in IL-17A-high but not in IL-17A-low PsA patients | PASI75 response rate over time (IL-19-high and IL-19-low groups (FIG. 16)): dose-dependent PASI75 response over time was observed in IL-19-high but not in IL-19-low PsA patients | Number of subjects, PASI75 Non-responder at week 16 [1]: 17 | Number of subjects, PASI75 Responder at week 16 [1]: 16 | Number of subjects, PASI75 Non-responder at week 16 [2]: 17 | Number of subjects, PASI75 Responder at week 16 [2]: 9 | Number of subjects, PASI75 Non-responder (CRP-high-PASI-high): 4 | Number of subjects, PASI75 Responder (CRP-high-PASI-high): 11 | Number of subjects, PASI75 Non-responder (CRP-high-PASI-low): 13 | Number of subjects, PASI75 Responder (CRP-high-PASI-low): 5 | Number of subjects, PASI75 Non-responder (CRP-low-PASI-high): 7 | Number of subjects, PASI75 Responder (CRP-low-PASI-high): 5 | Number of subjects, PASI75 Non-responder (CRP-low-PASI-low): 10 | Number of subjects, PASI75 Responder (CRP-low-PASI-low): 4 | Number of subjects (PASI75 non-responder at week 16, above baseline PASI median 6.6): 11 | Number of subjects (PASI75 non-responder at week 16, above median baseline BD2 level): 17 | Number of subjects (PASI75 non-responder at week 16, above median baseline IL-17A level): 14 | Number of subjects (PASI75 non-responder at week 16, above median baseline IL-19 level): 18 | Number of subjects (PASI75 non-responder at week 16, below baseline PASI median 6.6): 23 | Number of subjects (PASI75 non-responder at week 16, below median baseline BD2 level): 16 | Number of subjects (PASI75 non-responder at week 16, below median baseline IL-17A level): 20 | Number of subjects (PASI75 non-responder at week 16, below median baseline IL-19 level): 16 | Number of subjects (PASI75 non-responder, BD2-high-PASI-high): 8 | Number of subjects (PASI75 non-responder, BD2-high-PASI-low): 12 | Number of subjects (PASI75 non-responder, BD2-low-PASI-high): 3 | Number of subjects (PASI75 non-responder, BD2-low-PASI-low): 11 | Number of subjects (PASI75 non-responder, IL-17A-high-PASI-high): 8 | Number of subjects (PASI75 non-responder, IL-17A-high-PASI-low): 6 | Number of subjects (PASI75 non-responder, IL-17A-low-PASI-high): 3 | Number of subjects (PASI75 non-responder, IL-17A-low-PASI-low): 17 | Number of subjects (PASI75 non-responder, IL-19-high-PASI-high): 9 | Number of subjects (PASI75 non-responder, IL-19-high-PASI-low): 9 | Number of subjects (PASI75 non-responder, IL-19-low-PASI-high): 2 | Number of subjects (PASI75 non-responder, IL-19-low-PASI-low): 14 | Number of subjects (PASI75 responder at week 16, above baseline PASI median 6.6): 16 | Number of subjects (PASI75 responder at week 16, above median baseline BD2 level): 22 | Number of subjects (PASI75 responder at week 16, above median baseline IL-17A level): 19 | Number of subjects (PASI75 responder at week 16, above median baseline IL-19 level): 19 | Number of subjects (PASI75 responder at week 16, below baseline PASI median 6.6): 9 | Number of subjects (PASI75 responder at week 16, below median baseline BD2 level): 15 | Number of subjects (PASI75 responder at week 16, below median baseline IL-17A level): 6 | Number of subjects (PASI75 responder at week 16, below median baseline IL-19 level): 6 | Number of subjects (PASI75 responder, BD2-high-PASI-high): 14
